Data reported in publication PMC11915032, “Development of a Novel ^18F-Labeled Radioligand for Imaging Cholesterol 24-Hydroxylase with Positron Emission Tomography” (ACS Pharmacology & Translational Science, 2025).
Each block holds one compound with its values, some of them ahead of it.

Columns and labels:
CYP46A1 [1] = target: T1, CYP46A1 (Homo sapiens, UniProt Q9Y6A2); experiment: CYP46A1 inhibition potency; format: biochemical
[2] = logD by shake flask method; format: physicochemical; conditions: n-octanol/PBS
Experimental: The lipophilicity was measured according to a previous report.[21] In brief, [^18F]5, n-octanol (3 mL), and PBS (3 mL) were added in a centrifugal tube, followed by vortexing for 3 min and centrifugation (∼14,000 rpm) for 5 min. Then, PBS (around 500 μL) and n-octanol (around 50 μL) were weighed and measured by a gamma counter.

CYP46A1 [3] = target: T2, CYP46A1 (Rattus norvegicus, UniProt A0ACM8QFK4); experiment: In vitro autoradiography with [^18F]5 on rat brain tissue sections; format: binding; conditions: displacement of [^18F]5 with unlabeled 5 at varying concentrations
T2 construct: from tissue; host or cells: rat brain (Sprague-Dawley rats)
Experimental: To assess the binding specificity of [^18F]5 for CYP46A1, in vitro autoradiography was performed by using rat brain tissue sections. […] The accumulation patterns are in agreement with the brain distribution of CYP46A1 in rodents.[18] […] Furthermore, [^18F]5 was utilized to assess the potency toward CYP46A1 through an inhibition assay based on an in vitro autoradiography study (Figure 4B). The assay was performed by the incubation of [^18F]5 on rat brain tissue sections in the presence of unlabeled 5 at varying concentrations.
The autoradiography study was conducted as previously reported.[22],[23] In brief, sagittal rat brain sections (20 μm) were incubated with Tris–HCl buffer (50 mM) at room temperature for 20 min and then incubated with [^18F]5 (1 μCi/mL). In the blocking study, the brain sections were incubated with [^18F]5 in the presence of Soticlestat, CHL2205, or 5 (10 μM). Then, the brain sections were washed with ice-cold Tris–HCl buffer (50 mM) for 2 min and cold distilled water for 10 s. Subsequently, the brain sections were dried, positioned on an imaging screen, and scanned by an Amersham Typhoon analyzer system.

67 major CNS targets = experiment: Off-target binding screen at 10 μM (NIMH PDSP); conditions: 10 μM testing concentration; except sigma-2 receptor
Experimental: Furthermore, off-target binding assays of compound 5 were performed in vitro against 67 major CNS targets (Figure S1 in the Supporting Information).
1 Supporting Scheme, Figures, and Tables
Scheme S1. Synthesis of precursor 6. (i) azetidin-3-ol hydrochloride, triphosgene, NEt 3, dichloromethane, 0 °C to room temperature, 1 h; (ii) 4-nitrobenzenesulfonyl chloride, 4-(dimethylamino)pyridine, NEt3, dichloromethane, room temperature, 12 h, 31% yield over […]
% Inhibition of Target Activity
Figure S1. Off-target pharmacological evaluation of compound 5 against major CNS targets, including common GPCRs, enzymes, ion channels, and transporters: initial screening at a concentration of 10 μM (supported by the NIMH PDSP). All data are mean

CYP46A1 [4] = target: T2, CYP46A1; experiment: Dynamic PET imaging in Sprague-Dawley rats; format: in vivo
Experimental: To investigate the in vivo binding specificity of [^18F]5 toward CYP46A1, dynamic PET imaging was performed in Sprague–Dawley (SD) rats (Figures 5 and S3 in the Supporting Information). […] Future studies will be required to evaluate its suitability in higher species and direct comparisons under identical experimental conditions. […] To investigate the reversibility of the tracer binding, we further performed a displacement study with Soticlestat at 20 min postadministration of [^18F]5 (Figure S4 in the Supporting Information).
The dynamic PET imaging study was performed in SD rats as previously reported.[21] A Genisys G8 PET scanner (Sofie Biosciences, USA) was used for dynamic PET imaging in rats with [^18F]5 (0.04 mCi) for 60 min. In the blocking study, rats were pretreated with Soticlestat (1 mg/kg, intravenous injection via the tail vein) 10 min before administration of [^18F]5. For the chase study, the rats were treated with Soticlestat (1 mg/kg, i.v.) 20 min after administration of [^18F]5.

CYP46A1 [5] = target: T1, CYP46A1; design: method as in PMID 32178974, PMID 34651220, PMID 37770111, PMID 36197966; conditions: in vivo; cited from earlier work
Stability in rat serum = format: in vitro ADME; conditions: 37 °C, up to 60 min
Experimental: (§1) Mouse serum (Sigma-Aldrich, cat. M5905, 0.4 mL), rat serum (Abcam, cat. ab7488, 0.4 mL), NHP serum (Abcam, cat. ab155109, 0.4 mL), and human serum (Sigma-Aldrich, cat. H4522, 0.4 mL) were incubated at 37 °C for 5 min. Then, formulated [^18F]5 was added and incubated at 37 °C (Benfluorex was used in the positive control test). At 5, 30, and 60 min after incubation with [^18F]5, 100 μL of the samples was drawn in centrifugal tubes and added to ice-cold MeCN (100 μL). The mixtures were centrifuged at 10,000g for 5 min, and the supernatants were analyzed by radio-HPLC.

Stability in human serum = format: in vitro ADME; conditions: 37 °C, up to 60 min
Experimental: as §1

[6] = Radiometabolite analysis in SD rats; format: in vivo, rat
Experimental: Radiometabolite analysis of [^18F]5 was conducted as previously reported.[25] SD rats were administrated with [^18F]5 and then euthanized at 20 and 60 min after administration of [^18F]5. The brains were collected, homogenized, and centrifuged with cold acetonitrile and PBS buffer. Then, the supernatants were injected into a radio-HPLC with unlabeled 5 as an internal standard. Both [^18F]5 and its ^18F-metabolites were collected by HPLC and then measured by a gamma counter. The same procedure was performed for the plasma.

Stability in NHP serum = format: in vitro ADME; conditions: 37 °C, up to 60 min
Experimental: as §1

Stability in mouse serum = format: in vitro ADME; conditions: 37 °C, up to 60 min
Experimental: as §1

[7] = In vitro stability in saline; format: physicochemical; conditions: saline 18.5 MBq/mL, containing 5% ethanol, up to 60 min
Experimental: The ^18F-labeling nosylate precursor 6 was prepared via a procedure similar to that of compound 5 in 31% yield over two steps (Scheme S1). […] [^18F]5 was generated in a 13% decay-corrected radiochemical yield with a high molar activity of 93 GBq/μmol (2.5 Ci/ μmol).

[8] = Whole-body biodistribution in CD-1 mice; format: in vivo, mouse
Experimental: The biodistribution study was conducted in CD-1 mice as previously reported.[24] CD-1 mice were administrated with [^18F]5 (10 μCi) and divided into four groups and then euthanized at 5, 15, 30, and 60 min after administration of [^18F]5. Major organs were collected, weighed, and measured by a gamma counter.

T2 sequence (A0ACM8QFK4 29-500): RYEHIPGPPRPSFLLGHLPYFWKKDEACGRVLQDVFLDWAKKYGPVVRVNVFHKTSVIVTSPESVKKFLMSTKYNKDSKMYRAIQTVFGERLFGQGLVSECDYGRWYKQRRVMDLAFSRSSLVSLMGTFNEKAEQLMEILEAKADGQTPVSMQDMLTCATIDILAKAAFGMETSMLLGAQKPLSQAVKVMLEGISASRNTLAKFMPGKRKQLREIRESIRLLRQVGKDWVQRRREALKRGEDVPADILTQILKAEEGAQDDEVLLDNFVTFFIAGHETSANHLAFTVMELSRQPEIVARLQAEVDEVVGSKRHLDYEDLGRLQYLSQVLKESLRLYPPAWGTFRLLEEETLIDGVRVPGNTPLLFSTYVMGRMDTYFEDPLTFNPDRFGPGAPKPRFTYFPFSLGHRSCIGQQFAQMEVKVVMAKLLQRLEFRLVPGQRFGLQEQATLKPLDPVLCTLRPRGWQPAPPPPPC
T1 sequence (Q9Y6A2 whole entry, species assumed): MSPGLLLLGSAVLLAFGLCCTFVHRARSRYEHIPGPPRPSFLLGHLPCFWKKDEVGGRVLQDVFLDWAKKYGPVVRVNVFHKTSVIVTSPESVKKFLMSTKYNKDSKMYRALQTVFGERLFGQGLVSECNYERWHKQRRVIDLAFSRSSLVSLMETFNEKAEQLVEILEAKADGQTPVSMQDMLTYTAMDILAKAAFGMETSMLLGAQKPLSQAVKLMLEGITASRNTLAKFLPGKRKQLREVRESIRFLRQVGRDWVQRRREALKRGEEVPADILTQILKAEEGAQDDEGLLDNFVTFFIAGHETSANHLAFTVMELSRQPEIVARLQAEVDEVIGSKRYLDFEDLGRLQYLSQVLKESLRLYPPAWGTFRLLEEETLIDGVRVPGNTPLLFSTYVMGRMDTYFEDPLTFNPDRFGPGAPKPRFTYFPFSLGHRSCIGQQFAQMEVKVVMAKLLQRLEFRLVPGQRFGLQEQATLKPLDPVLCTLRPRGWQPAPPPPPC

IC50 (CYP46A1 [1]): 0.11 nM
logD [2]: 3.16
Kd (CYP46A1 [3]): 0.37 nM
off-target binding (>50% inhibition) (67 major CNS targets): no significant off-target binding
SMILES: O=C(N1CC(F)C1)N1CCc2c(-c3cnco3)cc(C(F)(F)F)cc21 [Compound 5, (3-fluoroazetidin-1-yl)(4-(oxazol-5-yl)-6-(trifluoromethyl)indolin-1-yl)methanone]

SMILES: O=C(c1cccnc1-c1ccncc1)N1CCC(O)(Cc2ccccc2)CC1 [Soticlestat, reference compound]
brain signal in displacement (chase) study (CYP46A1 [4]; 1 mg/kg i.v. at 20 min postadministration of [^18F]5): markedly reduced

SMILES: O=[11C](NCc1ccccc1)N1CCN(c2cncnc2-c2ccccc2)CC1 [[^11C]A]
binding specificity toward CYP46A1 (CYP46A1 [5]): marginal binding specificity
brain uptake (CYP46A1 [5]): low brain uptake

SMILES: O=C(C1CCN(c2cnccc2-n2cc(Cl)cn2)CC1)N1CC([18F])C1 [[^18F]3g]
binding specificity toward CYP46A1 (CYP46A1 [5]): good binding specificity
brain uptake (CYP46A1 [5]): high brain uptake

stability in rat serum (Stability in rat serum): minimal radiometabolite formation
IC50 (CYP46A1 [1]): 0.11 nM
stability in human serum (Stability in human serum): minimal radiometabolite formation
SUVmax in striatum (CYP46A1 [4]; SD rats, baseline PET): 4.1
SUVmax in thalamus (CYP46A1 [4]; SD rats, baseline PET): 4.2
brain uptake SUV (CYP46A1 [4]; rodents): > 4
unchanged [^18F]5 in brain ([6]; 20 min postadministration): 93%
unchanged [^18F]5 in plasma ([6]; 20 min postadministration): 29%
unchanged [^18F]5 in brain ([6]; 60 min postadministration): 92%
unchanged [^18F]5 in plasma ([6]; 60 min postadministration): 23%
stability in NHP serum (Stability in NHP serum): minimal radiometabolite formation
stability in mouse serum (Stability in mouse serum): minimal radiometabolite formation
in vitro stability (radiolysis) in saline [7]: no radiolysis detected
bone uptake (radiodefluorination) ([8]; 5-60 min): No obvious increase in bone uptake
liver uptake ([8]; 60 min): 6.5 % ID/g
initial uptake in brain, small intestine, kidney and liver ([8]; initially): ~10 % ID/g
SMILES: O=C(N1CC([18F])C1)N1CCc2c(-c3cnco3)cc(C(F)(F)F)cc21 [[^18F]5]

SMILES: CN(C(=O)C1CCN(c2cncnc2-c2ccc([18F])cc2)CC1)C1CC1 [[^18F]CHL2205]
binding specificity toward CYP46A1 (CYP46A1 [5]): good binding specificity
brain uptake (CYP46A1 [5]): high brain uptake

SMILES: O=C(C1CCN(c2cncnc2-c2ccc(F)cc2)CC1)N1CC([18F])C1 [[^18F]T-008]
binding specificity toward CYP46A1 (CYP46A1 [5]): good binding specificity
brain uptake (CYP46A1 [5]): high brain uptake
